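Test compounds were applied to cells in 96-well plates for 48 hours at 5 doses. GI50 = concentration required for 50% inhibition of growth.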 Calls of active or inactive are those of the source. No stated cut-off is given here; in the data, active = GI50 up to about 1.1 µM and inactive = higher.
Experiments:
Experiment in all cases: inhibition of tumour cell growth, NCI panel, 48 h
DLD-1 = test system: DLD-1
DMS-114 = test system: DMS-114
DMS-273 = test system: DMS-273
HOP-18 = test system: HOP-18
KM-20L2 = test system: KM-20L2
M19-MEL = test system: M19-MEL
SNB-78 = test system: SNB-78
XF498 = test system: XF498
RXF 631 = test system: RXF 631

| SMILES | GI50 (DLD-1) | GI50 (DMS-114) | GI50 (DMS-273) | GI50 (HOP-18) | GI50 (KM-20L2) | GI50 (M19-MEL) | GI50 (SNB-78) | GI50 (XF498) | GI50 (RXF 631) |
| --- | --- | --- | --- | --- | --- | --- | --- | --- | --- |
| Oc1ccc(-c2n[nH]c(S)n2)cc1 | > 100 µM (inactive) | > 100 µM (inactive) | > 100 µM (inactive) | > 100 µM (inactive) | > 100 µM (inactive) | > 100 µM (inactive) | > 100 µM (inactive) | > 100 µM (inactive) |  |
| COC(=O)C(C(=O)C(=O)Nc1ccc(C)cc1C)c1nc2ccc([N+](=O)[O-])cc2nc1O (centres undefined) | > 100 µM (inactive) | 33.4 µM (inactive) | 97.7 µM (inactive) | > 100 µM (inactive) | > 100 µM (inactive) | > 100 µM (inactive) | > 100 µM (inactive) | > 100 µM (inactive) | > 100 µM (inactive) |
| CC(=O)OCC1OC(n2c(=O)[nH]c(=O)c3nn[nH]c32)C(OC(C)=O)C(OC(C)=O)C1OC(C)=O (centres undefined) | > 100 µM (inactive) | > 100 µM (inactive) | > 100 µM (inactive) | 76.7 µM (inactive) | > 100 µM (inactive) | > 100 µM (inactive) |  | > 100 µM (inactive) |  |
| Cc1ccc(/C=C(\NC(=O)c2ccccc2)c2nc3ccccc3[nH]2)cc1 | 56.8 µM (inactive) | 27.6 µM (inactive) |  | > 100 µM (inactive) | 47.1 µM (inactive) | 46.5 µM (inactive) |  |  |  |
| O=C(O)C12C3CCC(C3)C1(C(=O)O)C1CCC2C1 (centres undefined) | 24.7 µM (inactive) | 33.9 µM (inactive) | > 100 µM (inactive) | > 100 µM (inactive) | > 100 µM (inactive) | 92.5 µM (inactive) | > 100 µM (inactive) | > 100 µM (inactive) | > 100 µM (inactive) |
| CCOP(=O)(OCC)/C(C#N)=C\c1cccc2ccccc12 |  |  |  |  | > 100 µM (inactive) | > 100 µM (inactive) | 48.2 µM (inactive) |  |  |
| CNC(=O)NCNC(=O)NC | > 100 µM (inactive) | > 100 µM (inactive) | > 100 µM (inactive) | > 100 µM (inactive) | > 100 µM (inactive) | > 100 µM (inactive) | > 100 µM (inactive) |  | > 100 µM (inactive) |
| COc1cc2ccnc3c2c(c1OC)CC1CC(O)C(OC)CC31 (centres undefined) | 95.3 µM (inactive) | 44.5 µM (inactive) | 34 µM (inactive) | 21.8 µM (inactive) | 43.2 µM (inactive) | 96.2 µM (inactive) | > 100 µM (inactive) | 44.7 µM (inactive) |  |
| Cc1ccc(C(=O)C(C)N)cc1 (centres undefined) | > 100 µM (inactive) | > 100 µM (inactive) | > 100 µM (inactive) | > 100 µM (inactive) | > 100 µM (inactive) |  | > 100 µM (inactive) | > 100 µM (inactive) |  |
| Cc1nc(N)nc(N)c1CCCCc1ccc(N)cc1 | 6.43 µM (inactive) |  |  |  | 3.74 µM (inactive) | 8.55 µM (inactive) | 9.46 µM (inactive) | 11.4 µM (inactive) |  |
| O=C(c1ccco1)N(C(=S)N1CCN(c2ccccc2)CC1)c1ccccc1 | > 100 µM (inactive) | > 100 µM (inactive) | > 100 µM (inactive) | > 100 µM (inactive) | > 100 µM (inactive) | > 100 µM (inactive) | > 100 µM (inactive) |  |  |
| COc1cc(C2(C)SCCCS2)cc(OC)c1OC | > 100 µM (inactive) | > 100 µM (inactive) | > 100 µM (inactive) | > 100 µM (inactive) | > 100 µM (inactive) | > 100 µM (inactive) |  |  | > 100 µM (inactive) |
| Cc1cc(N(CCC#N)CCC#N)ccc1/C=C1\N=C(c2cc([N+](=O)[O-])ccc2Cl)N(NC(=O)c2ccc(/N=C\c3ccc(N(CCC#N)S(C)(=O)=O)cc3C)cc2)C1=O | 63.5 µM (inactive) | 85.5 µM (inactive) | 41.5 µM (inactive) | > 100 µM (inactive) | 58.2 µM (inactive) | 73.1 µM (inactive) | > 100 µM (inactive) | > 100 µM (inactive) | > 100 µM (inactive) |
| O=C(/C=C/c1ccc(OCCSCCCCCCCCCCSCCOc2ccc(/C=C/C(=O)c3ccc(Cl)cc3)cc2)cc1)c1ccc(Cl)cc1 | > 100 µM (inactive) | > 100 µM (inactive) | > 100 µM (inactive) | > 100 µM (inactive) | > 100 µM (inactive) | > 100 µM (inactive) | 37.2 µM (inactive) |  | > 66.1 µM (inactive) |
| Cc1cccc(N2C(=O)/C(=C/c3ccc(N(CCC#N)CCC#N)cc3C)N=C2c2cc([N+](=O)[O-])ccc2Cl)c1 | > 100 µM (inactive) | 88.9 µM (inactive) | > 100 µM (inactive) | > 100 µM (inactive) |  | > 100 µM (inactive) |  |  | > 100 µM (inactive) |
| CC1(C)O/C(=C\c2ccccc2)C(=O)/C(=C/c2ccccc2)O1 | 42.3 µM (inactive) | 17.3 µM (inactive) | 42.6 µM (inactive) | > 100 µM (inactive) |  | 28.6 µM (inactive) | 38.5 µM (inactive) | 18.5 µM (inactive) | 33.8 µM (inactive) |
| COC(=O)C1CC(C(=O)OC)c2nc3cc(C)ccc3nc21 (centres undefined) | > 100 µM (inactive) | > 100 µM (inactive) | > 100 µM (inactive) | 51.4 µM (inactive) | > 100 µM (inactive) | > 100 µM (inactive) | > 100 µM (inactive) | > 100 µM (inactive) | > 100 µM (inactive) |
| CN(C)NC(=O)/C(=C/c1ccc(Cl)cc1)NC(=O)c1ccccc1 | 44.9 µM (inactive) |  | 29.4 µM (inactive) | > 100 µM (inactive) | > 100 µM (inactive) | > 100 µM (inactive) |  | > 100 µM (inactive) | 55.3 µM (inactive) |
| NCCCC(N/C=C1/N=C(c2ccccc2)OC1=O)C(=O)O (centres undefined) | 65.8 µM (inactive) | > 100 µM (inactive) | > 100 µM (inactive) |  | > 100 µM (inactive) | > 100 µM (inactive) | > 100 µM (inactive) | > 100 µM (inactive) |  |
| COC(=O)C1=Cc2cc(OC)c(OC)cc2[C@H](c2ccc(OC)c(OC)c2)C1C(=O)OC (some centres undefined) |  | > 100 µM (inactive) | > 100 µM (inactive) |  | > 100 µM (inactive) | > 100 µM (inactive) | > 100 µM (inactive) | > 100 µM (inactive) |  |
| Cc1ccc2[nH]c3c4c5ccccc5nc-4c[nH]c3c2c1 | 15.5 µM (inactive) | 16.1 µM (inactive) |  | 14.9 µM (inactive) | 15.1 µM (inactive) |  | 17 µM (inactive) | 21.4 µM (inactive) |  |
| CCOC(=O)C(=O)Nc1ccc([N+](=O)[O-])cc1C#N | > 100 µM (inactive) | > 100 µM (inactive) |  | > 100 µM (inactive) |  | > 100 µM (inactive) |  | > 100 µM (inactive) | > 100 µM (inactive) |
| Nc1nc(SCc2ccccc2[N+](=O)[O-])c2[nH]cnc2n1 | > 100 µM (inactive) |  | > 100 µM (inactive) |  | > 100 µM (inactive) | > 100 µM (inactive) | > 100 µM (inactive) |  |  |
| CCCOc1ccc(/C=C/c2cc(OC)c(OC)c(OC)c2)cc1 | 0.386 µM (active) | 0.347 µM (active) | 0.147 µM (active) | > 100 µM (inactive) | 0.2 µM (active) | 0.682 µM (active) | 1.29 µM (inactive) | 0.56 µM (active) | 2.03 µM (inactive) |

From ChEMBL document CHEMBL1201862, “PubChem BioAssay data set” (2004)
